Series [1] deals with AMP-activated protein kinase (AMPK) alpha-1/beta-1/gamma-1 (Homo sapiens) (UniProt P54619+Q9Y478+Q13131). The series can be described thus: Activation of CaMKK2-phosphorylated AMPK1 alpha1/beta1/gamma1 (unknown origin) assessed as ratio of 5-(6-chloro-5-(1-methyl-1H-indol-5-yl)-1H-benzo[d]imidazol-2-yloxy)-2-methylbenzoic acid EC50 to test compound EC50 using fluorescein-labeled SAMS peptide as substrate pretreated for 30 mins in presence of AMP followed by substrate addition measured after 60 mins by fluorescence assay. The series is classed as protein-complex assay.
AMP-activated protein kinase (AMPK) alpha-1/beta-1/gamma-1 (Homo sapiens), sequence (P54619 whole entry): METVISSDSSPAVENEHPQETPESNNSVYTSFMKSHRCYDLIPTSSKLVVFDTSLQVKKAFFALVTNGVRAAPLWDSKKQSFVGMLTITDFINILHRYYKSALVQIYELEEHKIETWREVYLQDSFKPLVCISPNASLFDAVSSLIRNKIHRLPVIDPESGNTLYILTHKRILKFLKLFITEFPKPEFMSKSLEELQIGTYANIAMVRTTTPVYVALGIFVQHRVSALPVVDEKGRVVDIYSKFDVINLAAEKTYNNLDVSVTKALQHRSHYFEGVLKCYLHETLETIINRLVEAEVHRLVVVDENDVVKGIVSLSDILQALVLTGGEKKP
AMP-activated protein kinase (AMPK) alpha-1/beta-1/gamma-1 (Homo sapiens), sequence (Q13131 whole entry partner): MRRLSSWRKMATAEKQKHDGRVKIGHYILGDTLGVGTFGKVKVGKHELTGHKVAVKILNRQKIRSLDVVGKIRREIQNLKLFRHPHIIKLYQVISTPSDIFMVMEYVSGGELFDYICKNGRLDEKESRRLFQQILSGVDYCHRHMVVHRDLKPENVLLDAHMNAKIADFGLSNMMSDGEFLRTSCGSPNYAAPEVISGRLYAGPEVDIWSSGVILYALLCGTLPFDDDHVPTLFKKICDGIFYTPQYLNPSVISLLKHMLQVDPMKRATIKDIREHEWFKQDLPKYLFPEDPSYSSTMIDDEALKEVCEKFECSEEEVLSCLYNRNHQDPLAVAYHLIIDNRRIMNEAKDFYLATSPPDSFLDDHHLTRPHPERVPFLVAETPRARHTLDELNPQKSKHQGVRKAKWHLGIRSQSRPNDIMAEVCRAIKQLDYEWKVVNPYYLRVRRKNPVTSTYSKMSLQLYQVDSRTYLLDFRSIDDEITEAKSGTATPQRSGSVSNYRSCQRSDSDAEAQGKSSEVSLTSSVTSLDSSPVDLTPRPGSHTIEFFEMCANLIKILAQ
AMP-activated protein kinase (AMPK) alpha-1/beta-1/gamma-1 (Homo sapiens), sequence (Q9Y478 2-270 partner limits assumed): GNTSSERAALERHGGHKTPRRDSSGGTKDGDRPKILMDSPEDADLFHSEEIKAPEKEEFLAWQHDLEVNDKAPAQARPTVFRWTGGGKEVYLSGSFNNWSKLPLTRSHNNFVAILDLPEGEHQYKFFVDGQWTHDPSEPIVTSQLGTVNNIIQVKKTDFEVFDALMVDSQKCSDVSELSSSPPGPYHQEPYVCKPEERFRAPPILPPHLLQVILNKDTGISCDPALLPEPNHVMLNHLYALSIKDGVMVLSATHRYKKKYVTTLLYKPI

Series [2] addresses AMP-activated protein kinase alpha-1/beta-2/gamma-2 (Homo sapiens) (UniProt O43741+Q9UGJ0+Q13131). Description: Activation of CaMKK2-phosphorylated AMPK5 alpha1/beta2/gamma2 (unknown origin) using fluorescein-labeled SAMS peptide as substrate pretreated for 30 mins in presence of AMP followed by substrate addition measured after 60 mins by fluorescence assay. The class given is protein-complex assay.

Series [3] addresses AMPK alpha2/beta2/gamma3 (Homo sapiens) (UniProt P54646+O43741+Q9UGI9). The series can be described thus: Activation of CaMKK2-phosphorylated AMPK12 alpha2/beta2/gamma3 (unknown origin) using fluorescein-labeled SAMS peptide as substrate pretreated for 30 mins in presence of AMP followed by substrate addition measured after 60 mins by fluorescence assay. The series is classed as protein-complex assay.

For series [4], the system named is Mus musculus. Description: In vivo activation of AMPK1 in C57BL/6 eDIO mouse assessed as increase in ratio of phosphorylated ACC to total ACC in liver at 10 to 30 mg/kg, po measured at 2 to 3 hrs post dose by MSD electrochemiluminescence assay. The class given is functional, organism-based.
Series [5] has as its system Mus musculus. Description: In vivo activation of AMPK10 in C57BL/6 eDIO mouse assessed as increase in ratio of phosphorylated ACC to total ACC in skeletal muscle at 10 to 30 mg/kg, po measured at 2 to 3 hrs post dose by MSD electrochemiluminescence assay. The series is classed as functional, organism-based.
Series [6] concerns Mus musculus. Description: Effect on xylose absorption in C57BL/6 eDIO mouse at 10 to 30 mg/kg, po measured up to 90 mins. The series is classed as ADME, organism-based. The conditions noted are these: in vivo, 1.5 h.
Series [7] deals with Sodium-dependent noradrenaline transporter (Homo sapiens) (UniProt P23975). Description: Activity at NET (unknown origin).
Sodium-dependent noradrenaline transporter (Homo sapiens), sequence (P23975 whole entry): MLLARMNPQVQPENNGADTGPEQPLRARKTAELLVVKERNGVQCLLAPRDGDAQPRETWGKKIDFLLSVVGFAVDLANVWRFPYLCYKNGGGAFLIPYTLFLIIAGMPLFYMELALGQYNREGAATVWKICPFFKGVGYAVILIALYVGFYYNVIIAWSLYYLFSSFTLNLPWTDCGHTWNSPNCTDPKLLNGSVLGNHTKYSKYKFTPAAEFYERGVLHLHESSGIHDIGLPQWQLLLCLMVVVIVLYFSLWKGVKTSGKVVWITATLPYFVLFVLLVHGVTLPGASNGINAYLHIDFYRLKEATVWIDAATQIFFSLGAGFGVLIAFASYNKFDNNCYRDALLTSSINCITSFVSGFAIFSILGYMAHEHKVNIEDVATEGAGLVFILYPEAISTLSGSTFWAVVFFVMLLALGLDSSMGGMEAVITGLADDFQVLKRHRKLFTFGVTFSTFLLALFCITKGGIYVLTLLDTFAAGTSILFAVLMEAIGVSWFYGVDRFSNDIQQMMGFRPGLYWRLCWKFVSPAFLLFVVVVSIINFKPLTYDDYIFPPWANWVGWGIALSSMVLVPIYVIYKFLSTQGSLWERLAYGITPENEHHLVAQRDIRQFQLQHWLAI
The target of series [8] is Amine oxidase [flavin-containing] B (Homo sapiens, UniProt P27338). The series can be described thus: Activity at MAOB (unknown origin).
Amine oxidase [flavin-containing] B, sequence (P27338 whole entry): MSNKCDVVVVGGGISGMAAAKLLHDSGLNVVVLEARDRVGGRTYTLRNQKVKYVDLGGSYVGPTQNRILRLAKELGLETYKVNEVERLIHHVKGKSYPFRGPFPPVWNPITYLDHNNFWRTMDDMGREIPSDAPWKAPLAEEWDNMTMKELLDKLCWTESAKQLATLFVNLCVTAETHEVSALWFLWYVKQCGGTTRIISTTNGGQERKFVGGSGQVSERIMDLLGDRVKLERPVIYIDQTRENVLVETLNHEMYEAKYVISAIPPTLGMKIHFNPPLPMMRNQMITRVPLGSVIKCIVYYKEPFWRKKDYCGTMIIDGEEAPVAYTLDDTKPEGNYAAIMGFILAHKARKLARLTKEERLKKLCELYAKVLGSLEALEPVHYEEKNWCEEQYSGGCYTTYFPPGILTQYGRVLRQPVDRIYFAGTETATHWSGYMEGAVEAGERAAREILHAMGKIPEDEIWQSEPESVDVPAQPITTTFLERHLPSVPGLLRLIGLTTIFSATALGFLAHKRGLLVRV
Series [9] has as its system Mus musculus. Description: In vivo activation of AMPK10 in C57BL/6 db/+ mouse assessed as ratio of phosphorylated ACC to total ACC in skeletal muscle at 30 mg/kg, po administered as single dose measured after 2 hrs by MSD electrochemiluminescence assay relative to control.

Structures are written as SMILES. The source made the active and inactive calls. The calls are words filed in the database; no cut-off is given here.

AMP-activated protein kinase alpha-1/beta-2/gamma-2 (Homo sapiens), sequence (O43741 whole entry, looked up): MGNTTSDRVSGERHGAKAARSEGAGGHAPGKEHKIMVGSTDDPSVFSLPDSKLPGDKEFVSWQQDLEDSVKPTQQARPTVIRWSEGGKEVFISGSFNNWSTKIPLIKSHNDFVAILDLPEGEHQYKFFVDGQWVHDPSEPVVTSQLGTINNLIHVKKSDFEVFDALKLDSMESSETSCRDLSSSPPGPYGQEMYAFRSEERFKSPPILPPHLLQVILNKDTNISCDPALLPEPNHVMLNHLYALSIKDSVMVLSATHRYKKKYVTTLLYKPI
AMP-activated protein kinase alpha-1/beta-2/gamma-2 (Homo sapiens), sequence (Q13131 whole entry, looked up): as the sequence (Q13131 whole entry partner) above
AMP-activated protein kinase alpha-1/beta-2/gamma-2 (Homo sapiens), sequence (Q9UGJ0 whole entry, looked up): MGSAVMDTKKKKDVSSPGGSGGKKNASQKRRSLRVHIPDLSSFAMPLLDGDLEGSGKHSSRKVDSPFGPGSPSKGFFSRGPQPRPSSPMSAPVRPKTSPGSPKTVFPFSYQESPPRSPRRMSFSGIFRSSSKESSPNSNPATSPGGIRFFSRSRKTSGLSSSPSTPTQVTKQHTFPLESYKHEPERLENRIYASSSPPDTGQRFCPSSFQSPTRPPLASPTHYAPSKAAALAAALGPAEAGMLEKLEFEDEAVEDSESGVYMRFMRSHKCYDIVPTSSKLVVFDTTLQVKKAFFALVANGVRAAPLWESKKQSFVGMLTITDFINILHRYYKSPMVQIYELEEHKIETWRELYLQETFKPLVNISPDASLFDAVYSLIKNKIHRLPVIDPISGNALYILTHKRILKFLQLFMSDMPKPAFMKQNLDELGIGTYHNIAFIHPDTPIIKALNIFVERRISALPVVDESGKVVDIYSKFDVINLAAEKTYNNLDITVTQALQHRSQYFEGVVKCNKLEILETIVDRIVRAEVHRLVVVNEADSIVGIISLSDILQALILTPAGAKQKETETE
AMPK alpha2/beta2/gamma3 (Homo sapiens), sequence (O43741 whole entry, looked up): as the sequence (O43741 whole entry, looked up) above
AMPK alpha2/beta2/gamma3 (Homo sapiens), sequence (P54646 whole entry, looked up): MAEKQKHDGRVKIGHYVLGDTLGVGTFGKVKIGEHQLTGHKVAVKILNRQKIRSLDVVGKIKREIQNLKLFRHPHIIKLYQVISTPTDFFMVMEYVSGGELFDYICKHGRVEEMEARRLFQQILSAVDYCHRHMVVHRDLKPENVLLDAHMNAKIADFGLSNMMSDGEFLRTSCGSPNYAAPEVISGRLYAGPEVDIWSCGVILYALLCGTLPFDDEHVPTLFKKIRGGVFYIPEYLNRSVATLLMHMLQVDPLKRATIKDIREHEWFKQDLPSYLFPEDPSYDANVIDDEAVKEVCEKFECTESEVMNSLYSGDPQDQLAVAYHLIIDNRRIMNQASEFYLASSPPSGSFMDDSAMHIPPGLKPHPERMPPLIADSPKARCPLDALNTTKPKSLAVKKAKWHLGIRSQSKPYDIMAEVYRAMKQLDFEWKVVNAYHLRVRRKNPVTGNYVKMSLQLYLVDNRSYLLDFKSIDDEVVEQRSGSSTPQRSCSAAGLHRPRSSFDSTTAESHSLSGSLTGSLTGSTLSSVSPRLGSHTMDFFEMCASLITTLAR
AMPK alpha2/beta2/gamma3 (Homo sapiens), sequence (Q9UGI9 whole entry, looked up): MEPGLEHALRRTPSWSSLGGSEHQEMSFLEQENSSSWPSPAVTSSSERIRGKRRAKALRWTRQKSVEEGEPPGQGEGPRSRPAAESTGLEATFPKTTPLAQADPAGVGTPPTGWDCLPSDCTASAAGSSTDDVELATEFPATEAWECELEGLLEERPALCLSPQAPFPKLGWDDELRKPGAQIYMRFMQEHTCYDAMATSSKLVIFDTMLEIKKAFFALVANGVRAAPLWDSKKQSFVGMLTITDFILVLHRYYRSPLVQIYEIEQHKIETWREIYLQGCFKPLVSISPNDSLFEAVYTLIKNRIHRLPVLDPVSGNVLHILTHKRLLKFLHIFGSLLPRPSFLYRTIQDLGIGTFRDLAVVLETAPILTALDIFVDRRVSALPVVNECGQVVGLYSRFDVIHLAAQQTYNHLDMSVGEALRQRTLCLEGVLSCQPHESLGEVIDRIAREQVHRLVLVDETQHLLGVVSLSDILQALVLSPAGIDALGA

Turning to `O[C@@H]1CO[C@H]2[C@@H]1OC[C@H]2Oc1nc2nc(-c3ccc(-c4ccccc4)cc3)c(Cl)cc2[nH]1`, the Ratio EC50 in series [1] came out at 1. For the same compound, the outcome (in series [2]; in series [3]; with Mus musculus [4]; with Mus musculus [5]) was Active. The figures for the Activity result (in the series on Mus musculus [6]; in series [7]; in series [8]) were “Non-Toxic”, 3 to 10 µM and 3 to 10 µM, respectively. Also, the “fold change (FC)” value in the series with Mus musculus [9] is 2.9.

The values above are taken from ChEMBL document CHEMBL4138270, “Discovery of MK-8722: A Systemic, Direct Pan-Activator of AMP-Activated Protein Kinase” (ACS Med Chem Lett, 2018).
